# Data as given in PubChem BioAssay (NCI).
#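 Five compound concentrations were applied to cells in 96-well plates for 48 hours; endpoints were derived by simple linear interpolation of the resulting dose-response curve. TGI: total growth inhibition.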
# Experiments:
# Assay in all cases: NCI-60 cell line screen, 48 h
# 786-0 renal = system: 786-0 renal
# A498 renal = system: A498 renal
# A549 NSCLC = system: A549 NSCLC
# ACHN renal = system: ACHN renal
# BT-549 breast = system: BT-549 breast
# CAKI-1 renal = system: CAKI-1 renal
# COLO 205 colon = system: COLO 205 colon
# DU-145 prostate = system: DU-145 prostate
# EKVX NSCLC = system: EKVX NSCLC
# HCC-2998 colon = system: HCC-2998 colon
# HCT-116 colon = system: HCT-116 colon
# HCT-15 colon = system: HCT-15 colon
# HOP-62 NSCLC = system: HOP-62 NSCLC
# HOP-92 NSCLC = system: HOP-92 NSCLC
# HS 578T breast = system: HS 578T breast
# HT29 colon = system: HT29 colon
# IGROV1 ovarian = system: IGROV1 ovarian
# K-562 leukemia = system: K-562 leukemia
# KM12 colon = system: KM12 colon
# LOX IMVI melanoma = system: LOX IMVI melanoma
# M14 melanoma = system: M14 melanoma
# MALME-3M melanoma = system: MALME-3M melanoma
# MCF7 breast = system: MCF7 breast
# MDA-MB-231 breast = system: MDA-MB-231 breast
# MDA-MB-435 = system: MDA-MB-435
# MDA-N = system: MDA-N
# MOLT-4 leukemia = system: MOLT-4 leukemia
# NCI-H226 lung = system: NCI-H226 lung
# NCI-H23 lung = system: NCI-H23 lung
# NCI-H460 lung = system: NCI-H460 lung
# NCI-H522 lung = system: NCI-H522 lung
# NCI/ADR-RES ovarian = system: NCI/ADR-RES ovarian
# OVCAR-3 ovarian = system: OVCAR-3 ovarian
# OVCAR-4 ovarian = system: OVCAR-4 ovarian
# OVCAR-5 ovarian = system: OVCAR-5 ovarian
# OVCAR-8 ovarian = system: OVCAR-8 ovarian
# PC-3 prostate = system: PC-3 prostate
# RPMI-8226 leukemia = system: RPMI-8226 leukemia
# RXF 393 renal = system: RXF 393 renal
# SF-268 CNS = system: SF-268 CNS
# SF-295 CNS = system: SF-295 CNS
# SF-539 CNS = system: SF-539 CNS
# SK-MEL-2 melanoma = system: SK-MEL-2 melanoma
# SK-MEL-28 melanoma = system: SK-MEL-28 melanoma
# SK-MEL-5 melanoma = system: SK-MEL-5 melanoma
# SK-OV-3 ovarian = system: SK-OV-3 ovarian
# SN12C renal = system: SN12C renal
# SNB-19 CNS = system: SNB-19 CNS
# SR leukemia = system: SR leukemia
# SW-620 colon = system: SW-620 colon
# T-47D breast = system: T-47D breast
# TK-10 renal = system: TK-10 renal
# U251 CNS = system: U251 CNS
# UACC-257 melanoma = system: UACC-257 melanoma
# UACC-62 melanoma = system: UACC-62 melanoma
# UO-31 renal = system: UO-31 renal
# CCRF-CEM leukemia = system: CCRF-CEM leukemia
# HL-60(TB) leukemia = system: HL-60(TB) leukemia
# SNB-75 CNS = system: SNB-75 CNS
smiles,measurement,setting,value
COC1=C2CC(C)CC(OC)C(OC(=O)CN)[C@H](C)/C=C(\C)C(OC(N)=O)C(OC)/C=C\C=C(/C)C(=O)NC(=CC1=O)C2=O (some centres not stated),TGI,786-0 renal,6.45 µM
same,TGI,A498 renal,24.7 µM
same,TGI,A549 NSCLC,21.8 µM
same,TGI,ACHN renal,13.4 µM
same,TGI,BT-549 breast,14.2 µM
same,TGI,CAKI-1 renal,17 µM
same,TGI,COLO 205 colon,0.559 µM
same,TGI,DU-145 prostate,16.4 µM
same,TGI,EKVX NSCLC,13.1 µM
same,TGI,HCC-2998 colon,7.81 µM
same,TGI,HCT-116 colon,3.45 µM
same,TGI,HCT-15 colon,12.6 µM
same,TGI,HOP-62 NSCLC,6.02 µM
same,TGI,HOP-92 NSCLC,1.27 µM
same,TGI,HS 578T breast,20.2 µM
same,TGI,HT29 colon,11.2 µM
same,TGI,IGROV1 ovarian,1.62 µM
same,TGI,K-562 leukemia,> 100 µM
same,TGI,KM12 colon,4.29 µM
same,TGI,LOX IMVI melanoma,0.828 µM
same,TGI,M14 melanoma,10.8 µM
same,TGI,MALME-3M melanoma,1.59 µM
same,TGI,MCF7 breast,2.01 µM
same,TGI,MDA-MB-231 breast,1.6 µM
same,TGI,MDA-MB-435,2.89 µM
same,TGI,MDA-N,3.34 µM
same,TGI,MOLT-4 leukemia,1.57 µM
same,TGI,NCI-H226 lung,24.7 µM
same,TGI,NCI-H23 lung,1.77 µM
same,TGI,NCI-H460 lung,20.9 µM
same,TGI,NCI-H522 lung,1.15 µM
same,TGI,NCI/ADR-RES ovarian,27.8 µM
same,TGI,OVCAR-3 ovarian,2.98 µM
same,TGI,OVCAR-4 ovarian,8.38 µM
same,TGI,OVCAR-5 ovarian,13.8 µM
same,TGI,OVCAR-8 ovarian,4.24 µM
same,TGI,PC-3 prostate,13.3 µM
same,TGI,RPMI-8226 leukemia,> 100 µM
same,TGI,RXF 393 renal,8.21 µM
same,TGI,SF-268 CNS,16.4 µM
same,TGI,SF-295 CNS,17.5 µM
same,TGI,SF-539 CNS,12.7 µM
same,TGI,SK-MEL-2 melanoma,14.7 µM
same,TGI,SK-MEL-28 melanoma,1.75 µM
same,TGI,SK-MEL-5 melanoma,4.51 µM
same,TGI,SK-OV-3 ovarian,16.7 µM
same,TGI,SN12C renal,4.91 µM
same,TGI,SNB-19 CNS,20.7 µM
same,TGI,SR leukemia,1.98 µM
same,TGI,SW-620 colon,1.25 µM
same,TGI,T-47D breast,1.32 µM
same,TGI,TK-10 renal,15.6 µM
same,TGI,U251 CNS,12.6 µM
same,TGI,UACC-257 melanoma,1.02 µM
same,TGI,UACC-62 melanoma,1.78 µM
same,TGI,UO-31 renal,11.6 µM
CN(C)C(=S)C(Cl)(c1ccccc1)c1ccccc1,TGI,786-0 renal,> 100 µM
same,TGI,A498 renal,> 100 µM
same,TGI,A549 NSCLC,> 100 µM
same,TGI,ACHN renal,> 100 µM
same,TGI,BT-549 breast,> 100 µM
same,TGI,CAKI-1 renal,> 100 µM
same,TGI,CCRF-CEM leukemia,> 100 µM
same,TGI,COLO 205 colon,> 100 µM
same,TGI,DU-145 prostate,> 100 µM
same,TGI,EKVX NSCLC,75 µM
same,TGI,HCC-2998 colon,> 100 µM
same,TGI,HCT-116 colon,> 100 µM
same,TGI,HCT-15 colon,> 100 µM
same,TGI,HL-60(TB) leukemia,71.6 µM
same,TGI,HOP-62 NSCLC,> 100 µM
same,TGI,HOP-92 NSCLC,> 100 µM
same,TGI,HS 578T breast,> 100 µM
same,TGI,HT29 colon,77.3 µM
same,TGI,IGROV1 ovarian,> 100 µM
same,TGI,K-562 leukemia,> 100 µM
same,TGI,KM12 colon,> 100 µM
same,TGI,LOX IMVI melanoma,> 100 µM
same,TGI,M14 melanoma,> 100 µM
same,TGI,MALME-3M melanoma,> 100 µM
same,TGI,MCF7 breast,> 100 µM
same,TGI,MDA-MB-231 breast,> 100 µM
same,TGI,MDA-MB-435,> 100 µM
same,TGI,MDA-N,> 100 µM
same,TGI,MOLT-4 leukemia,> 100 µM
same,TGI,NCI-H226 lung,> 100 µM
same,TGI,NCI-H23 lung,> 100 µM
same,TGI,NCI-H460 lung,> 100 µM
same,TGI,NCI-H522 lung,> 100 µM
same,TGI,NCI/ADR-RES ovarian,> 100 µM
same,TGI,OVCAR-3 ovarian,> 100 µM
same,TGI,OVCAR-4 ovarian,> 100 µM
same,TGI,OVCAR-5 ovarian,> 100 µM
same,TGI,OVCAR-8 ovarian,> 100 µM
same,TGI,PC-3 prostate,> 100 µM
same,TGI,SF-268 CNS,> 100 µM
same,TGI,SF-295 CNS,> 100 µM
same,TGI,SF-539 CNS,> 100 µM
same,TGI,SK-MEL-2 melanoma,66.8 µM
same,TGI,SK-MEL-28 melanoma,> 100 µM
same,TGI,SK-MEL-5 melanoma,> 100 µM
same,TGI,SK-OV-3 ovarian,> 100 µM
same,TGI,SN12C renal,> 100 µM
same,TGI,SNB-19 CNS,> 100 µM
same,TGI,SNB-75 CNS,> 100 µM
same,TGI,SW-620 colon,> 100 µM
same,TGI,T-47D breast,61.7 µM
same,TGI,TK-10 renal,> 100 µM
same,TGI,U251 CNS,> 100 µM
same,TGI,UACC-257 melanoma,> 100 µM
same,TGI,UACC-62 melanoma,> 100 µM
same,TGI,UO-31 renal,> 100 µM
